Active and inactive are the calls of the source.
Key:
[1] = target: T1, Tyrosine-protein phosphatase non-receptor type 7 (Homo sapiens, UniProt P35236); format: functional
T1 sequence (P35236 whole entry): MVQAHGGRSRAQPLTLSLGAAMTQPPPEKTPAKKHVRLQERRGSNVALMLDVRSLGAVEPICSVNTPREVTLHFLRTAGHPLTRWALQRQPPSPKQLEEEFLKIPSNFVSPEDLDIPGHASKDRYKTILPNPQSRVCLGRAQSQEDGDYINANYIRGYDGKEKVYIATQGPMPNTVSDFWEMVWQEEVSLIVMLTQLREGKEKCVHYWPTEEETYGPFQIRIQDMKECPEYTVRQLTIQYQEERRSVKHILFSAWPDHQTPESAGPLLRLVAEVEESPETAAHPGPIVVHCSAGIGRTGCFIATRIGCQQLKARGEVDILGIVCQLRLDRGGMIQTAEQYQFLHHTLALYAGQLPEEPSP

[2] = target: Glyceraldehyde-3-phosphate dehydrogenase (Homo sapiens, UniProt P04406)
[3] = HPDE-C7 pancreatic duct cell viability loss – fluorescence, HTS (AID 430); format: functional, cell-based; conditions: Homo sapiens
Large T antigen = Large T antigen (Simian virus 40, UniProt P03070); format: functional, Betapolyomavirus macacae;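 note: Confirmatory-stage PubChem screen for compounds that inhibit SV40 T antigen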
[4] = viability loss of HPDE-C7K cells – cell-based, fluorescence, HTS, primary screen (AID 431); format: functional; conditions: Homo sapiens
[5] = target: T2, Dual specificity protein phosphatase 6 (Rattus norvegicus, UniProt Q64346)
T2 sequence (Q64346 whole entry): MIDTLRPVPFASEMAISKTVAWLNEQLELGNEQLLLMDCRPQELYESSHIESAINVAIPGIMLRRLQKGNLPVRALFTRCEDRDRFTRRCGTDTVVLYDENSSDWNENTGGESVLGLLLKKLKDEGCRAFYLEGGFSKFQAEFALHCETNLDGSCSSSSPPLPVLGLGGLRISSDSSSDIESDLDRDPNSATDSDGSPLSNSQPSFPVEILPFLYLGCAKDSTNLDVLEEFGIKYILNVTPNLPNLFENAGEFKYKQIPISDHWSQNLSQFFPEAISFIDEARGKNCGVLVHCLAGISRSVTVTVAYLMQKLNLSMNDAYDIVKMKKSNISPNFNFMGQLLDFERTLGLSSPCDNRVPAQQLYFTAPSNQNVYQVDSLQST

Ephrin type-A receptor 4 = Ephrin type-A receptor 4 (Mus musculus, UniProt Q03137); assay: EphA4 ligand-binding antagonists – biochemical, colorimetric, mouse EphA4, primary screen (AID 689); format: functional
[6] = target: Dual specificity protein phosphatase 3 (Homo sapiens, UniProt P51452); assay: SAR VHR1 Fluorescent Assay for In Vitro dose response studies. [Related pubchem assays (depositor defined):AID1654, AID1661, AID1878, AID1992, AID2004, AID2070, AID2085]; format: functional
[7] = target: T1, Tyrosine-protein phosphatase non-receptor type 7; assay: redox-active compounds inhibiting HePTP phosphatase – biochemical, fluorescence, mechanism study (AID 2068); format: functional
Cysteine protease ATG4B = target: T3, Cysteine protease ATG4B (Homo sapiens, UniProt Q9Y4P1); format: functional;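 note: Fluorescence-based dose-response confirmation assay measuring inhibition of ATG4B activity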
T3 sequence (Q9Y4P1 whole entry): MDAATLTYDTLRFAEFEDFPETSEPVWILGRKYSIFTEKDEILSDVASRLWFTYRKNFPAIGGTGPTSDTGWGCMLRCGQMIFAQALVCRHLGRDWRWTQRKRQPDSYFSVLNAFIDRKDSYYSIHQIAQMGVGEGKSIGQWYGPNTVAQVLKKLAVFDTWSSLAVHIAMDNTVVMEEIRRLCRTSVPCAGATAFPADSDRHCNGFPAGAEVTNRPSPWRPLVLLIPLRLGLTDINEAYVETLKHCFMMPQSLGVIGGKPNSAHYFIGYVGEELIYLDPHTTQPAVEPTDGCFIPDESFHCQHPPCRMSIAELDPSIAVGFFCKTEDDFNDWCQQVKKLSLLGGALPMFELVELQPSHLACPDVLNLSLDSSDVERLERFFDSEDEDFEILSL

Phospholipase A2 = Phospholipase A2 (Homo sapiens, UniProt P04054); format: functional;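 note: confirmatory dose-response counterscreen on phospholipase A2, testing hits that came from an ultra-high-throughput screen for ATG4B inhibitors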
[8] = target: T2, Dual specificity protein phosphatase 6; format: functional
T-cell = assay: loss of vesicle association with mouse CD8+ T cells – mouse 2C CD8+ T cells, flow cytometry, dose response (AID 485284); format: functional
[9] = target: T4, Short transient receptor potential channel 4 (Mus musculus, UniProt Q9QUQ5); assay: potentiation of DAMGO-evoked TRPC4 calcium signal – cell-based, HEK293 TRPC4/mu-opioid, Fluo-4 calcium, EC20 DAMGO, dose response (AID 434941); format: functional
T4 sequence (Q9QUQ5 whole entry): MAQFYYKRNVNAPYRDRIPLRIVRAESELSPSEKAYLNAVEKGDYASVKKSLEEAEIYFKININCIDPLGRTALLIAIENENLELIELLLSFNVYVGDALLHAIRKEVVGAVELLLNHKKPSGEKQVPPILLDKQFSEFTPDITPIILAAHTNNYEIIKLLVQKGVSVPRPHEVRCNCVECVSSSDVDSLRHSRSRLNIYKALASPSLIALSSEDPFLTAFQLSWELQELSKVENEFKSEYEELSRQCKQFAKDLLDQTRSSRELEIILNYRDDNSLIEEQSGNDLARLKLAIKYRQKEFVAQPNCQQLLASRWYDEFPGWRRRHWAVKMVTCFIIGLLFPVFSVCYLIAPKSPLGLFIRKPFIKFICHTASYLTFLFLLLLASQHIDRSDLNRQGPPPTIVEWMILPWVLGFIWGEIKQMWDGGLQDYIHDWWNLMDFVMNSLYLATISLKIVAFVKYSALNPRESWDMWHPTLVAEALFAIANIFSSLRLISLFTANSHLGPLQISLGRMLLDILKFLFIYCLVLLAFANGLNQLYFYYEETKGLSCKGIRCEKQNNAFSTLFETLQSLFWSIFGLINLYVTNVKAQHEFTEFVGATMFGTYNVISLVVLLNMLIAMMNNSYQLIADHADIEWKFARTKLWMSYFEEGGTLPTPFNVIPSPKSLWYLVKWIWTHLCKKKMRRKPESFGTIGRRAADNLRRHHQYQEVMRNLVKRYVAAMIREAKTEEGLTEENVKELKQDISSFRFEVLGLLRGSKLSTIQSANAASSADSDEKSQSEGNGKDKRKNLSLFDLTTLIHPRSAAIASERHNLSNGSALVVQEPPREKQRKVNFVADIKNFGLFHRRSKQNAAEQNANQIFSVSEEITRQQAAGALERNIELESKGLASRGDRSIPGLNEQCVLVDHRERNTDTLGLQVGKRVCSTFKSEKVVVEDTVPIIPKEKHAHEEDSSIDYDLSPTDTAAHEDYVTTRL

Vero = assay: mammalian cell viability reduction – secondary assay, cytotoxicity control for West Nile virus antiviral project, dose response (AID 1650); format: functional; conditions: Chlorocebus sabaeus
[10] = Trypanosoma cruzi growth suppression in host cells – NIH3T3 host cells, beta-gal luminescence, confirmation (AID 2044); format: functional, cell-based;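 note: intracellular parasites grown in NIH/3T3 mouse fibroblasts as host cells; luminescent beta-galactosidase reporter signal from transgenic T. cruzi replicating inside host cells; inhibitors lower the luminescence signal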
[11] = NIH3T3 cell viability loss – ATP luminescence, mouse fibroblasts, counter-screen, dose response (AID 2010); format: functional, cell-based;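 note: cells exposed to compound for about 90 hours before reading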
[12] = target: T5, Ubiquitin-conjugating enzyme E2 N (Homo sapiens, UniProt P61088); format: functional;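 note: Dose-response confirmation in a TR-FRET assay detecting UBC13-driven polyubiquitin chain formation, inhibition measured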
T5 sequence (P61088 whole entry): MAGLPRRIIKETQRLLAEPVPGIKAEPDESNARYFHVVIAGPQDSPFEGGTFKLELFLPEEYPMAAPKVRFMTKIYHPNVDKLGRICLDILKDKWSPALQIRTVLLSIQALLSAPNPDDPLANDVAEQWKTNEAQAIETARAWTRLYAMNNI

ORF 73 = target: T6, ORF 73 (Human herpesvirus 8, UniProt O40947); assay: KSHV LANA DNA-binding disruption – biochemical, fluorescence polarization, cherry-picked samples, dose response (AID 504725); design: species or system Human gammaherpesvirus 8;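 note: fluorescence polarization of a labeled DNA duplex reporting LANA DNA binding; potency is for inhibitors that block LANA binding to the DNA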
T6 sequence (O40947 whole entry): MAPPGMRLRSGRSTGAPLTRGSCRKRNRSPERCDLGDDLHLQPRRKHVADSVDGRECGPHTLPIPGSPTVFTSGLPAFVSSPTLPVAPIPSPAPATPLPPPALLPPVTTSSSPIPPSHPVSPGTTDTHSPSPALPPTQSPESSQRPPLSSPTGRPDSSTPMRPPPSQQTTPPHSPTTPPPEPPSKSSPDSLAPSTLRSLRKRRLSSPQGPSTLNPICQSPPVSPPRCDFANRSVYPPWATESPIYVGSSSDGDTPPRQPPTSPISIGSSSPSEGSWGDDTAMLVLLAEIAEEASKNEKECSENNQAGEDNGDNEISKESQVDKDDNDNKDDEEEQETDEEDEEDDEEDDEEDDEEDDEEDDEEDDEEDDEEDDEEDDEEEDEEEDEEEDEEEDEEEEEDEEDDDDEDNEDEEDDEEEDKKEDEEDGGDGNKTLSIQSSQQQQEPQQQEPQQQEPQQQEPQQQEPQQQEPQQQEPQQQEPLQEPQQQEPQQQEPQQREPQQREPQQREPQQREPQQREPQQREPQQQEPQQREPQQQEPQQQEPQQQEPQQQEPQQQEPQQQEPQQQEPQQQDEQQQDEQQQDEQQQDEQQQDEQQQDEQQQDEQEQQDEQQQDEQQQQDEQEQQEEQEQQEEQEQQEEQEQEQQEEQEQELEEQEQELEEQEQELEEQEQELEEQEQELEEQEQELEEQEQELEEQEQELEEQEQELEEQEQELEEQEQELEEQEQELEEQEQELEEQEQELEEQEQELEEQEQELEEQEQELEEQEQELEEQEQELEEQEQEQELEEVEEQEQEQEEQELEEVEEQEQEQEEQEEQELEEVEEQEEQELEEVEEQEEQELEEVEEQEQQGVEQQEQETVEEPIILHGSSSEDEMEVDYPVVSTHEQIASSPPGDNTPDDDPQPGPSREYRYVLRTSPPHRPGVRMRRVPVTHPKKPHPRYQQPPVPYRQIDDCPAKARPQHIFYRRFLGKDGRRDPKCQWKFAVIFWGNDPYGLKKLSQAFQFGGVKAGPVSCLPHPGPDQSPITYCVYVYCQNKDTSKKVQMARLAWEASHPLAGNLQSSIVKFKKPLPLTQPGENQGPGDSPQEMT

Troponin, cardiac muscle = Troponin, cardiac muscle (Homo sapiens, UniProt P19429+P45379+P63316); assay: compounds desensitizing RTF to calcium – biochemical, fluorescence, cardiac regulated thin filaments, triplicate IC50, dose response (AID 504742); format: protein-complex assay
[13] = target: T7, Rac GTPase-activating protein 1 (Homo sapiens, UniProt Q9H0H5); assay: blockers of MgcRacGAP-driven Rac1 GTP hydrolysis – biochemical, ADP Hunter fluorescence, primary and confirmatory, confirmation (AID 624330); format: functional
T7 sequence (Q9H0H5 whole entry): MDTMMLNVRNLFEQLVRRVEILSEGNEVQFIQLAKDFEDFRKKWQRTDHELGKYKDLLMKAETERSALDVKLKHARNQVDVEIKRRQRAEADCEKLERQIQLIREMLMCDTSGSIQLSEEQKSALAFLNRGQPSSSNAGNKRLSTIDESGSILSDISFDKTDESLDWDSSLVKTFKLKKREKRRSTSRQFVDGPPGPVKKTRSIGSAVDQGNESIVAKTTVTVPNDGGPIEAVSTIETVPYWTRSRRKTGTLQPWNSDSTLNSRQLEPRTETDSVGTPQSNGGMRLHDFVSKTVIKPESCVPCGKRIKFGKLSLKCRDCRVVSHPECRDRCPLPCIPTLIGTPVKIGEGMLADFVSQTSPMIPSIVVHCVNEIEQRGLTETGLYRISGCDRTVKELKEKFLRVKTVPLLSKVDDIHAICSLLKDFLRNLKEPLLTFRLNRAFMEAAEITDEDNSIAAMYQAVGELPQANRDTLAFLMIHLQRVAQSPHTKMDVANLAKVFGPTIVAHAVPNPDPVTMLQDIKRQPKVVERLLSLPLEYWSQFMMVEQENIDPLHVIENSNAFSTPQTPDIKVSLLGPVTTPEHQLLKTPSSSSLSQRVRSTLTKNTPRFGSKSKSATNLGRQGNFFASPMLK

Ephrin type-A receptor 4, sequence (Q03137 whole entry): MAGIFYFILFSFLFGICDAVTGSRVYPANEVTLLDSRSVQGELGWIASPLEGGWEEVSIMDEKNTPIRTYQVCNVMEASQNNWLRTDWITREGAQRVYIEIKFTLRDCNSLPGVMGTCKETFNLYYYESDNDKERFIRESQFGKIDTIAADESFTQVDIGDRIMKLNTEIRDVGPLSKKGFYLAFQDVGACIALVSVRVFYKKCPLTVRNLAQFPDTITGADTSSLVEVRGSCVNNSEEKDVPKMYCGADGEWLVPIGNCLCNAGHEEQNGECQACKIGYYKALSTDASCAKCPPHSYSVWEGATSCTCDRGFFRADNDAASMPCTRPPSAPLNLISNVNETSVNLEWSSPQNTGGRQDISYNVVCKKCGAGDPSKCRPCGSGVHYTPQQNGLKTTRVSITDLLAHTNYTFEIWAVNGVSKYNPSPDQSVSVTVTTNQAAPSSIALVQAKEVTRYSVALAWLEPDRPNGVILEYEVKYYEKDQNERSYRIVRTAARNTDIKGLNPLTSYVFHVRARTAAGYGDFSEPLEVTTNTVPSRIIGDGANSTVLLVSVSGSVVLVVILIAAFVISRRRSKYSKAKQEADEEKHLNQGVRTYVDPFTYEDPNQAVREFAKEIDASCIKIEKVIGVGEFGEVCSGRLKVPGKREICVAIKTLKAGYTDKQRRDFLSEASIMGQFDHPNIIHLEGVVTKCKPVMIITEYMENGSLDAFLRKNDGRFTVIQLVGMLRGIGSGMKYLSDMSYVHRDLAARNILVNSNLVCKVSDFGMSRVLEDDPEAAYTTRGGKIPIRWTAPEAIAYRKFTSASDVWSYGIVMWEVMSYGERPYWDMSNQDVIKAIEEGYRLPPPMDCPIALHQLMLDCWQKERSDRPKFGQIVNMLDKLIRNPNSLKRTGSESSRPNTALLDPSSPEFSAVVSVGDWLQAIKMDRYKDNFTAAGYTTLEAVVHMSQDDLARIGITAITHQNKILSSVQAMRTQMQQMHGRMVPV
Dual specificity protein phosphatase 3, sequence (P51452 whole entry): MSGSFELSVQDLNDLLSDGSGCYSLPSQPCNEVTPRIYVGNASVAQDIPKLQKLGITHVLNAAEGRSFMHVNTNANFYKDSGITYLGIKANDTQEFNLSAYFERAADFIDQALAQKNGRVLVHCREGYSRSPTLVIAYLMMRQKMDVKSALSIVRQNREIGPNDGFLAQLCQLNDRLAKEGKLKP
Phospholipase A2, sequence (P04054 whole entry): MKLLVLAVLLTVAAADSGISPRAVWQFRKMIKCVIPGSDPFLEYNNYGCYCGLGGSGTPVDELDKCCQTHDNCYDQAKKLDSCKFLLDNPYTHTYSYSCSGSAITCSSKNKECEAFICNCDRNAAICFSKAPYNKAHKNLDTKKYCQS
Glyceraldehyde-3-phosphate dehydrogenase, sequence (P04406 whole entry): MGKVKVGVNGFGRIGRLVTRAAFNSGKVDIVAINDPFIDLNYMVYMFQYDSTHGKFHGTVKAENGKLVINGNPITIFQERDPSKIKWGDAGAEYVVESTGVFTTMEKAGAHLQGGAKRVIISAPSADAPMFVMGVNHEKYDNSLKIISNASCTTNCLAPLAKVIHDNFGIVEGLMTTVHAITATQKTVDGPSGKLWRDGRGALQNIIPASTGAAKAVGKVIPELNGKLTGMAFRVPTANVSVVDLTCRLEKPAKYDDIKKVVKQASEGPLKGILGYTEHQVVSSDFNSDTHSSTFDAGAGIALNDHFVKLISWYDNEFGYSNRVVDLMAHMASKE
Large T antigen, sequence (P03070 whole entry): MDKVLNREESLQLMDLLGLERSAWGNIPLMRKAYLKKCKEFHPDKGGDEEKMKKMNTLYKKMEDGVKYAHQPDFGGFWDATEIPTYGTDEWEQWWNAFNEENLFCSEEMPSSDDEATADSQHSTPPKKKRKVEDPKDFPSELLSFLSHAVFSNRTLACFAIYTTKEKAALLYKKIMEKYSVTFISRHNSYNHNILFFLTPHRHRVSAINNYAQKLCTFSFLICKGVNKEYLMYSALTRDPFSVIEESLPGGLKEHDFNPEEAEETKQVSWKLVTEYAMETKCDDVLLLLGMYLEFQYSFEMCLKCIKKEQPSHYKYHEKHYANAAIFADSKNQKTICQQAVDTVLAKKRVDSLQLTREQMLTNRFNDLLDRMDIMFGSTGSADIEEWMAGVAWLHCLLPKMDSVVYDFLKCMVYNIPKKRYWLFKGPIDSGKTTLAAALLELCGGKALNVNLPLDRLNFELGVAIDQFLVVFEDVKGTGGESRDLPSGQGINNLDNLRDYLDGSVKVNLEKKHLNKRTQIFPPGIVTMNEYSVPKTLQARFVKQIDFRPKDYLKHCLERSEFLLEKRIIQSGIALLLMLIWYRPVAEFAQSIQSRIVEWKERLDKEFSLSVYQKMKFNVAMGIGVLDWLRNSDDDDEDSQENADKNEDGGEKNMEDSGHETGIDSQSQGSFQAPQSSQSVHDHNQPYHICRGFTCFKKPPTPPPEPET

Clc1ccccc1CSc1nnc(-c2ccco2)c(-c2ccco2)n1
IC50 [1]: 10.4 µM (active) | IC50 [2]: > 100 µM (not active) | EC50 [3]: 15 µM (active) | IC50 (Large T antigen): 54.4 µM (active) | EC50 [4]: 15.4 µM (active) | IC50 [5]: 31.2 µM (active) | IC50 (Ephrin type-A receptor 4): 2.46 µM (active) | IC50 [6]: 19.7 µM (active) | IC50 [7]: 0.329 µM (active) | IC50 (Cysteine protease ATG4B): 11.4 µM (active) | IC50 (Phospholipase A2): 7.53 µM (active) | IC50 [8]: 24.2 µM (active)

Cc1cccc(NC(=O)C2CCN(S(=O)(=O)c3c(C)nc(O)nc3O)CC2)c1
EC50 (T-cell): 8.65 µM (active)

Cc1cc2oc(C(=O)N(Cc3ccccc3)C3CCS(=O)(=O)C3)cc(=O)c2cc1Cl (stereo not drawn)
EC50 [9]: 3.76 µM (active)

CCC1(C)NC(=O)N(CC(=O)N2N=C(c3ccccc3)CC2c2ccc(OC)cc2)C1=O (stereo not drawn)
EC50 (T-cell): 16.1 µM (active)

CCCCN(CC)CCNC(=O)c1cc2c(=O)n(C)c3ccccc3c2s1
CC50 (Vero): 69 µM (active) | EC50 [10]: 2.29 µM (active) | EC50 [11]: > 60 µM (not active) | IC50 [12]: > 20 µM (inactive) | EC50 [9]: 0.07 µM (active)

O=C1C(=Cc2ccco2)CCC1=Cc1ccco1
AC50 (ORF 73): 63 µM (active) | IC50 (Troponin, cardiac muscle): > 71.5 µM (inactive) | IC50 [13]: 32.4 µM (active)
